# Tested on: captive live fish
# Assay: Holding captive live fish in water treated with isoeugenol
# Type: in vivo
# Excerpt: The first key ingredient of the chemical mixture for treating the water in fish tanks of the present invention is isoeugenol (2-Methoxy-4-propenylphenol; 4-hydroxy-3-methoxy-1-propenylbenzene; 4-propenylguaiacol) C10H1202. Isoeugenol is an essential oil derived from oil of clove that has anesthetizing capabilities for fish in water. In the preferred embodiment, the formula for maintaining the life of fish contains about 43 ppm±10% of isoeugenol to slow the metabolism of captive live fish.
# The benefits of treating the water in which fish are held or transported with isoeugenol are threefold. First, the metabolism of the fish is slowed and therefore the fish require less oxygen. The result is that more live fish may be held in smaller volumes of water. Also, live fish with a slower metabolism are easier to handle and fewer injuries are sustained by the fish.
# [1] = overdoses up to 10 times the preferred amount of isoeugenol
smiles,measurement,setting,value
"CC=Cc1ccc(O)c(OC)c1 [isoeugenol, 2-Methoxy-4-propenylphenol]",effect on fish activity (sedation),dosage rate of about 43 ppm±10% isoeugenol in the water,slow down fish activity sufficiently to allow handling of the live fish
same,coagulation of hook wounds,"fish held in water treated with isoeugenol, metabolism calmed",hook wounds appear to coagulate faster
same,fish behaviour at overdose (equilibrium),[1],some fish may still roll over and lose equilibrium
same,harm to fish at overdose,[1],not harmful to the fish

# — patent US20090288611A1, “Formula and method for treating water in fish tanks” (priority 2008, published 2009)
